Test [1] concerns K562 cells. Put plainly: K562 cell proliferation assay (CellTiter-Glo). The format is cell-based. Particulars: Homo sapiens, K562 cell viability, 72 hours, read-out: Cell Line (IC50, nM) K562.
In test [2] the test system is HL60 cells. Put plainly: HL60 cell proliferation assay (CellTiter-Glo). The format is cell-based. The following applies: Homo sapiens, HL-60, HL60 cell viability, 72 hours, read-out: Cell Line (IC50, nM) HL60.
Test [3] has as its target T1, ABL1 (Homo sapiens, UniProt P00519).
T1 construct: purchased Carna Biosciences
Put plainly: Luminescence-based ABL kinase assay (300 μM ATP), ADP-Glo. The format is biochemical. The source says:
Compounds were serially diluted in DMSO. […] Luminescence signal positively correlates with kinase activity.

Test [4] addresses ABL1 (T315I) (Homo sapiens, UniProt P00519, T315I). The description is as above. The format is biochemical.
The subject of test [5] is pCRKL in K562 cells. Put plainly: pCRKL ELISA assay in K562 cells. The format is cell-based. The following applies: Homo sapiens, 1.5 h, 90 minutes incubation, read-out: pCRKL ELISA, Cell Line IC50 (nM) K562. Here is the method:
(§1) K562 or Ba/F3 ABL T315I cells (2.0*10^5 cells/100 μl/well) were seeded in 96 well (Corning, cat #3799). Compounds were dissolved in DMSO, serially diluted in DMSO and then were added, mixed, and incubated for 90 minutes at 37° C., 5% CO2. Following the 90-minute incubation, plates were centrifuged for 5 min at 3000 RPM and supernatant was removed from each well. Cells were washed 3 times with 150 μl PBS prior to addition of 100 μl cell RIPA lysis buffer (Boston BioProducts, cat #BP-115D) supplied with 1× complete ULTRA cocktail inhibitor (Roche, 05892791001) and 1× PhosSTOP Phosphatase Inhibitor Cocktail Tablets (Roche, 04906837001). Cells were incubated with lysis buffer for 1 hour at 4° C. prior to storage at −80C.
(§2) A capture antibody able to detect phosphorylated and non-phosphorylated CRKL (R&D Systems, cat #AF5127) was added to Meso Scale Discovery (MSD) standard bind plates (MSD, cat #L15XA-3) at 5 ug/mL and incubated at 4° C. overnight. The next day, plates were washed with PBS+ 0.05% Tween20 (PBST) and 150 μl of 5% BSA blocking solution was added for 1 hour at room temperature with shaking. Plates were washed with PBST. Lysates were thawed and 30 μl of lysate was added to the MSD plates and incubated for 2 hours at room temperature with shaking. MSD plates were washed with PBST and 30 μl of a detection antibody that binds phosphorylated pCRKL (R&D Systems, cat #MAB6910) was added at 1 ug/mL to each well. Plates were incubated for 1 hour at room temperature with shaking. Plates were washed with PBST prior to addition of 30 μl of a sulfo tagged goat anti mouse detection antibody (MSD cat #R32AC-1). Plates were incubated for 1 hour at room temperature with shaking. Plates were washed with PBST prior to addition of 150 ul of 1×MSD read buffer T (MSD, cat #R92TC-2). Electrochemiluminescence (ECLU) was read on an MSD plate reader (Meso Scale Discovery). The remaining activity by calculated as follows: % Relative activity=100× (ELCUsample−ECLULC)/(ECLUHC−ECLULC). The low and high controls (LC/HC) are generated from lysate from wells without cells or with cells treated with 0.1% DMSO, respectively. IC50 values were calculated using XLFit software using a nonlinear regression model with a sigmoidal dose response and are shown in Table 4 and Table 5 below.
For orientation: An ELISA detects its analyte on a solid surface through an enzyme-linked reagent.

Test [6] relates to pCRKL in Ba/F3 ABL1 (T315I) cells. Nature of the test: pCRKL ELISA assay in Ba/F3 ABL1 (T315I) cells. The format is cell-based. Particulars: Mus musculus, BaF3, 1.5 h, 90 minutes incubation, read-out: pCRKL ELISA, Cell Line IC50 (nM) Ba/F3 ABL1 (T315I). Here is the method: as §1, §2

Take `COc1ncc(F)c(OC)c1-c1cc2cc(NC(=O)[C@H]3C[C@@H]3CN3CCN(C)CC3)ncc2n1C` (single isomer, unassigned) [Compound 128]: the IC50 in test [1] was 28.6 nM; in test [2] it was above 10000 nM; in test [3], 13.4 nM; in test [4], 12.9 nM; in test [5], 61.8 nM; in test [6] it was 171 nM.
As to `COc1ncccc1-c1cc2cc(NC(=O)[C@@H]3C[C@@H]3F)ncc2n1C` [Compound 35, (1S,2S)-2-fluoro-N-[2-(2-methoxypyridin-3-yl)-1-methylpyrrolo[2,3-c]pyridin-5-yl]cyclopropane-1-carboxamide], the IC50 amounted to 123 nM in test [1]; 4150 nM in test [2]; 39.7 nM in test [3]; 79.6 nM in test [4]; 241 nM in test [5]; 329 nM in test [6].
For `COc1ncc(F)c(OC)c1-c1cc2cc(NC(=O)[C@@H]3C[C@@H]3F)ncc2n1C` [Compound 38, (1S,2S)-2-fluoro-N-[2-(5-fluoro-2,4-dimethoxypyridin-3-yl)-1-methylpyrrolo[2,3-c]pyridin-5-yl]cyclopropane-1-carboxamide], the IC50 turned out to be 27.5 nM in test [1]; 1350 nM in test [2]; 11.3 nM in test [3]; 23.9 nM in test [4]; 73.2 nM in test [5]; 248 nM in test [6].
As to `COc1ncnc(OC)c1-c1cc2cc(NC(=O)[C@@H]3C[C@@H]3F)ncc2n1C` [Compound 39, (1S,2S)-N-[2-(4,6-dimethoxypyrimidin-5-yl)-1-methylpyrrolo[2,3-c]pyridin-5-yl]-2-fluorocyclopropane-1-carboxamide], the IC50 in test [1] worked out at 33.6 nM; in test [2], 3780 nM; in test [3], 36 nM; in test [4], 71.8 nM; in test [5] it was 96.4 nM; in test [6], 263 nM.
For `COc1nc(C)nc(OC)c1-c1cc2cc(NC(=O)[C@@H]3C[C@@H]3F)ncc2n1C` [Compound 72, (1S,2S)-N-[2-(4,6-dimethoxy-2-methylpyrimidin-5-yl)-1-methylpyrrolo[2,3-c]pyridin-5-yl]-2-fluorocyclopropane-1-carboxamide], the IC50 turned out to be 38.7 nM in test [1]; 3130 nM in test [2]; 37.1 nM in test [3]; 54.7 nM in test [4]; 137 nM in test [5]; 1140 nM in test [6].
As for `COc1ccnc(OC)c1-c1cc2cc(NC(=O)[C@@H]3C[C@@H]3F)ncc2n1C` [Compound 75, (1S,2S)-N-[2-(2,4-dimethoxypyridin-3-yl)-1-methylpyrrolo[2,3-c]pyridin-5-yl]-2-fluorocyclopropane-1-carboxamide], the IC50 worked out at 11.6 nM in test [1]; 682 nM in test [2]; 8.65 nM in test [3]; 13.6 nM in test [4]; 45.3 nM in test [5]; 93.2 nM in test [6].
For `COc1ncc(F)cc1-c1cc2cc(NC(=O)[C@@H]3C[C@@H]3F)ncc2n1C` [Compound 76, (1S,2S)-2-fluoro-N-[2-(5-fluoro-2-methoxypyridin-3-yl)-1-methylpyrrolo[2,3-c]pyridin-5-yl]cyclopropane-1-carboxamide], the IC50 in test [1] was determined as 200 nM; in test [2] it was 6240 nM; in test [3] it was 46.7 nM; in test [4], 55.4 nM; in test [5], 326 nM; in test [6], 194 nM.
On to `COc1nccc(OC2CC2)c1-c1cc2cc(NC(=O)[C@@H]3C[C@@H]3F)ncc2n1C` [Compound 90, (1S,2S)-N-[2-(4-cyclopropoxy-2-methoxypyridin-3-yl)-1-methylpyrrolo[2,3-c]pyridin-5-yl]-2-fluorocyclopropane-1-carboxamide], for which the IC50 stood at 6.01 nM in test [1]; 548 nM in test [2]; 2.26 nM in test [3]; 22.2 nM in test [4]; 29.8 nM in test [5].
Take `[2H]C([2H])([2H])Oc1ncnc(OC([2H])([2H])[2H])c1-c1cc2cc(NC(=O)[C@@H]3C[C@@H]3F)ncc2n1C` [Compound 95, (1S,2S)-N-(2-(4,6-bis(methoxy-d3)pyrimidin-5-yl)-1-methyl-1H-pyrrolo[2,3-c]pyridin-5-yl)-2-fluorocyclopropane-1-carboxamide]: the IC50 in test [1] worked out at 47.8 nM; in test [2], 3550 nM; in test [3], 12.7 nM; in test [4] it was 43.5 nM; in test [5], 66.3 nM.
For the molecule `COc1cc(C)nc(OC)c1-c1cc2cc(NC(=O)[C@@H]3C[C@@H]3F)ncc2n1C` [Compound 98, (1S,2S)-N-(2-(2,4-dimethoxy-6-methylpyridin-3-yl)-1-methyl-1H-pyrrolo[2,3-c]pyridin-5-yl)-2-fluorocyclopropane-1-carboxamide], the IC50 in test [1] was found to be 63 nM; in test [2], 605 nM; in test [3] it was 11.6 nM; in test [4] it was 38.8 nM; in test [5], 99.4 nM; in test [6] it was 253 nM.
Take `COc1nc(N)nc(OC)c1-c1cc2cc(NC(=O)[C@@H]3C[C@@H]3F)ncc2n1C` [Compound 103, (1S,2S)-N-(2-(2-amino-4,6-dimethoxypyrimidin-5-yl)-1-methyl-1H-pyrrolo[2,3-c]pyridin-5-yl)-2-fluorocyclopropane-1-carboxamide]: the IC50 in test [1] is 17.7 nM; in test [2], 385 nM; in test [3] it was 3.98 nM; in test [4], 7.85 nM; in test [5], 35.5 nM; in test [6] it was 172 nM.

For the origin of these results see patent publication US12240846B2 (Enliven Inc., priority 2020, dated 2025).
